The subject of the assay is T1, B0AT1.
T1 construct: gene SLC6A19; native full-length transporter in brush border membrane vesicles from rabbit ileal villus cells; not purified
The assay is described as follows: Na-dependent [3H]glutamine uptake into villus BBMV, […] s, rapid filtration. The format is biochemical, Oryctolagus cuniculus. The note with it: control (normal) rabbits; 0.2-100 mM glutamine; 100 mM NaCl versus choline chloride; pH 7.5; 3H-glutamine tracer.

This is an account of results in PMC6128596, “Cyclooxygenase pathway mediates the inhibition of Na-glutamine co-transporter B0AT1 in rabbit villus cells during chronic intestinal inflammation” (PLoS ONE, 2018).

What is called Km is the substrate concentration at which the rate is half of its maximum.

With `NC(=O)CC[C@H](N)C(=O)O` [glutamine], the Michaelis-Menten constant (Km) is 24.6 ± 1.8 mM.
